According to PubChem BioAssay (NCI):
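Growth conditions: 96-well plates. Treatment: test compound, 48 hours, 5 concentrations. Analysis: linear interpolation between bracketing concentrations; unreached endpoints set to highest concentration. GI50 is the concentration that inhibits growth by half. TGI is the concentration that stops growth completely.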

Assays:
Test in all cases: NCI tumour cell line growth inhibition, 48 h
HL-60(TB) leukemia = tested on: HL-60(TB) leukemia
HS 578T breast = tested on: HS 578T breast
HT29 colon = tested on: HT29 colon
IGROV1 ovarian = tested on: IGROV1 ovarian
MCF7 breast = tested on: MCF7 breast
MDA-MB-231 breast = tested on: MDA-MB-231 breast
NCI-H226 lung = tested on: NCI-H226 lung
SK-MEL-5 melanoma = tested on: SK-MEL-5 melanoma
U251 CNS = tested on: U251 CNS
UACC-62 melanoma = tested on: UACC-62 melanoma

SMILES	TGI (HL-60(TB) leukemia) [µM]	TGI (HS 578T breast) [µM]	TGI (HT29 colon) [µM]	TGI (IGROV1 ovarian) [µM]	TGI (MCF7 breast) [µM]	TGI (MDA-MB-231 breast) [µM]	TGI (NCI-H226 lung) [µM]	TGI (SK-MEL-5 melanoma) [µM]	TGI (U251 CNS) [µM]	TGI (UACC-62 melanoma) [µM]	GI50 (HL-60(TB) leukemia) [µM]	GI50 (HS 578T breast) [µM]	GI50 (HT29 colon) [µM]	GI50 (IGROV1 ovarian) [µM]	GI50 (MCF7 breast) [µM]	GI50 (MDA-MB-231 breast) [µM]	GI50 (NCI-H226 lung) [µM]	GI50 (SK-MEL-5 melanoma) [µM]	GI50 (U251 CNS) [µM]	GI50 (UACC-62 melanoma) [µM]
NCCP(=O)(O)O	> 100	> 100	> 100	> 100	> 100	> 100	> 100	> 100	> 100	> 100	–	–	–	–	–	–	–	–	–	–
C[C@]12C3CC[C@@]4(CO)C[C@]3(CCC1[C@](C)(C(=O)O)CC[C@@H]2O)CC4=O (some centres not stated)	> 100	> 100	> 100	> 100	> 100	> 100	> 100	> 100	> 100	> 100	> 100	> 100	> 100	> 100	> 100	> 100	> 100	> 100	> 100	> 100
C=C1CC2(CCCC3(CC(=C)C(=O)O3)C2(C)C)OC1=O (configuration not stated)	5.65	58	15	23.5	63.7	17.7	6.57	31.8	4.56	4.65	–	–	–	–	–	–	–	–	–	–
NC(=S)N/N=C\c1nccc2c(N)cccc12	11.7	> 100	> 100	–	–	> 100	1.08	4.01	–	1.94	0.181	1.68	0.454	0.219	0.218	0.471	0.282	0.324	0.237	0.264
C1=C(c2ccccc2)SC=C(c2ccccc2)S1	> 100	> 100	75.1	> 100	48.2	> 100	81.8	77.9	> 100	> 100	–	–	–	–	–	–	–	–	–	–
COc1cc(C2=NN(c3ccc(S(N)(=O)=O)cc3)C(c3ccc(Cl)cc3)C2)cc(OC)c1OC (configuration not stated)	> 100	> 100	> 100	> 100	> 100	> 100	> 100	18	> 100	> 100	3.94	3.58	4.15	8.09	3.36	3.95	7.25	3.35	3.84	4.12
O=c1c2ccccc2nc(-c2ccccc2)n1O	> 100	> 100	> 100	> 100	> 100	> 100	> 100	> 100	> 100	> 100	–	–	–	–	–	–	–	–	–	–
Oc1c(I)cc(-c2nc3ccccc3s2)cc1CN(Cc1ccccn1)Cc1ccccn1	> 100	93	27.6	9.06	35	10.4	3.16	0.438	12.9	0.563	0.323	1.61	0.668	0.517	0.34	0.217	0.269	0.179	0.267	0.207
